From patent US20170273961A1, “NOVEL IMINONITRILE DERIVATIVES” (CURADEV PHARMA, PVT. LTD., priority 2014, published 2017)

target: T1, IDO1 (Mus musculus, UniProt P28776); assay: Reduction of LPS induced plasma kynurenine levels in C57BL/6 mice; type: in vivo; details: LPS-injected (6 mg/kg i.p.) C57BL/6 mice; test compound given orally 20 h after LPS; plasma KYN by LC/MS/MS at 2 hr post dosing
T1 construct: LPS-injected mice have been used as models to study IDO1 expression and activity; from tissue; host or cells: whole animal: LPS-injected C57BL/6 mice, with IDO1 induced in a variety of tissues
T1 sequence (P28776 whole entry): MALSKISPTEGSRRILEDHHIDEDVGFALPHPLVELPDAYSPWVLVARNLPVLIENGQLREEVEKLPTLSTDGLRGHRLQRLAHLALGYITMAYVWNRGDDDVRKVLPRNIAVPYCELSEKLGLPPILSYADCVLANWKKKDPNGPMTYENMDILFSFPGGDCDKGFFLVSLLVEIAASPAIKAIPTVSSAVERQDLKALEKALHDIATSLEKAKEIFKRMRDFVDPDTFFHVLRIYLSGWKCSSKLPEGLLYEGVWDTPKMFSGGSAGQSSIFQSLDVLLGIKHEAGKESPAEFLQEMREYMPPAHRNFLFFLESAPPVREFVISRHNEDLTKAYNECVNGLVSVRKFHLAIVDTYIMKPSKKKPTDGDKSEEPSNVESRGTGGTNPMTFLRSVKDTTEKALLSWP
From the text: Inflammatory mediators such as Lipopolysaccharides (LPS) and Interferon-gamma (IFNg) are well-established inducers of IDO1 expression. Intraperitoneal (i.p.) administration of bacterial lipopolysaccharide (LPS) induces peak IDO1 activity in a variety of tissues within one day after LPS administration resulting in the production and release of kynurenine into the bloodstream (Takikawa, O., et al. (1986) J. Biol. Chem. 261:3648-53; Yoshida, H., et al. (1998) Cell 94:739-750). LPS-injected mice have been used as models to study IDO1 expression and activity. Three—eight fed C57 BL/6 mice (age 7-8 weeks, weight: about 20-22 g) were injected intrapritoneally with bacterial lipopolysaccharide (LPS; 26:B6 Sigma) at a concentration of 6 mg/kg. Animals were then housed in normal condition for 20 hours at which time the test compounds were administered orally in formulation containing 30% polyethylene glycol 400 (PEG 400) and 20% propylene glycol (PG) in normal saline (Dosing volume 10 mL/kg). Blood was drawn through retro-orbital bleeds into a tube containing 100 mM EDTA for plasma collection at the following times: just prior to LPS treatment, just prior to test compound dosing (0 hr) and then at 2 hr, 4 hr, 6 hr, 8 hr, 24 hr and 48 hr post-test compound dosing. Plasma KYN and drug levels were determined by LC/MS/MS using an API4000 mass spectrometer (Applied Biosystems) coupled to a Shimadzu Prominence LC system fitted with a C18 column.
The compounds of the invention decrease kynurenine levels. The compounds of the invention trigger a decrease of kynurenine levels at 2 hrs of at least 5%.

Row | SMILES | percentage of decrease of kynurenine level at two hours [%]
1 | Cc1nccc(/C(C#N)=N/c2ccc(F)c(Cl)c2)c1O [Compound 18, N-(3-Chloro-4-fluorophenyl)-3-hydroxy-2-methylisonicotinimidoyl nitrile] | 53
2 | Cc1cc(-c2nccc(/C(C#N)=N/c3ccc(F)c(Cl)c3)c2O)cc(C)n1 [Compound 16] | 36
3 | N#C/C(=N\c1ccc(F)c(C(F)(F)F)c1)c1ccnc(-c2ccncc2)c1O [Compound 40, N-(4-Fluoro-3-(trifluoromethyl)phenyl)-3-hydroxy-[2,4′-bipyridine]-4-carbimidoyl nitrile] | 77
4 | N#C/C(=N\c1ccc(F)c(Cl)c1)c1ccnc(Br)c1O [Compound 19, 2-Bromo-N-(3-chloro-4-fluorophenyl)-3-hydroxyIsonicotinimidoyl nitrile] | 38
5 | N#C/C(=N\c1ccc(F)c(F)c1)c1ccnc(-c2ccncc2)c1O [Compound 08, N-(3,4-Difluorophenyl)-3-hydroxy-[2,4′-bipyridine]-4-carbimidoyl nitrile] | 83
6 | Cc1cc(-c2nc(C)cc(/C(C#N)=N/c3ccc(F)c(Cl)c3)c2O)ccn1 [Compound 26, N-(3-Chloro-4-fluorophenyl)-3-hydroxy-2′,6-dimethyl-[2,4′-bipyridine]-4-carbimidoyl nitrile] | 11
7 | N#C/C(=N\c1ccc(F)c(Cl)c1)c1ccnc(-c2ccccc2)c1O [Compound 13, N-(3-Chloro-4-fluorophenyl)-3-hydroxy-2-phenylisonicotinimidoyl nitrile] | 46
8 | COc1cc(/C(C#N)=N/c2ccc(F)c(Cl)c2)c(O)cn1 [Compound 14, N-(3-Chloro-4-fluorophenyl)-5-hydroxy-2-methoxyisonicotinimidoyl nitrile] | 18
9 | N#C/C(=N\c1ccc(F)c(Cl)c1)c1ccnc(-c2ccncc2)c1O [Compound 04, N-(3-Chloro-4-fluorophenyl)-3-hydroxy-[2,4′-bipyridine]-4-carbimidoyl nitrile] | 77
10 | N#C/C(=N\c1ccc(F)c(Cl)c1)c1ccnc(-c2cccnc2)c1O [Compound 44, N-(3-Chloro-4-fluorophenyl)-3-hydroxy-[2,3′-bipyridine]-4-carbimidoyl nitrile] | 77
11 | N#C/C(=N\c1cccc(C(F)(F)F)c1)c1ccnc(-c2ccccc2)c1O [Compound 42, 3-Hydroxy-2-phenyl-N-(3-(trifluoromethyl)phenyl)isonicotinimidoyl nitrile] | 32
12 | CNC(=O)c1cc(-c2nccc(/C(C#N)=N/c3ccc(F)c(F)c3)c2O)ccn1 [Compound 37, N-(3,4-Difluorophenyl)-3-hydroxy-2′-(methylcarbamoyl)-[2,4′-bipyridine]-4-carbimidoyl nitrile] | 68
13 | Cc1cc(-c2nccc(/C(C#N)=N/c3ccccc3)c2O)ccn1 [Compound 24, 3-Hydroxy-2′-methyl-N-phenyl-[2,4′-bipyridine]-4-carbimidoyl nitrile] | 81
14 | Cc1cc(-c2nccc(/C(C#N)=N/c3ccc(F)cc3)c2O)ccn1 [Compound 11, N-(4-Fluorophenyl)-3-hydroxy-2′-methyl-[2,4′-bipyridine]-4-carbimidoyl nitrile] | 82
15 | N#C/C(=N\c1cccc(F)c1)c1ccnc(-c2ccncc2)c1O [Compound 41, N-(3-Fluorophenyl)-3-hydroxy-[2,4′-bipyridine]-4-carbimidoyl nitrile] | 81
16 | Cc1cc(-c2nccc(/C(C#N)=N/c3ccccc3Cl)c2O)ccn1 [Compound 25, N-(2-Chlorophenyl)-3-hydroxy-2′-methyl-[2,4′-bipyridine]-4-carbimidoyl nitrile] | 37
17 | N#C/C(=N\c1ccc(F)c(Cl)c1)c1ccnc(-c2cc(F)nc(F)c2)c1O [Compound 21, N-(3-Chloro-4-fluorophenyl)-2′,6′-difluoro-3-hydroxy-[2,4′-bipyridine]-4-carbimidoyl nitrile] | 21
18 | N#C/C(=N\c1ccc(F)c(Cl)c1)c1cc(F)ncc1O [Compound 06, N-(3-Chloro-4-fluorophenyl)-2-fluoro-5-hydroxyIsonicotinimidoyl nitrile] | 73
19 | CNC(=O)c1cc(-c2nccc(/C(C#N)=N/c3cccc(Cl)c3)c2O)ccn1 [Compound 30, N-(3-Chlorophenyl)-3-hydroxy-2′-(methylcarbamoyl)-[2,4′-bipyridine]-4-carbimidoyl nitrile] | 64
20 | N#C/C(=N\c1ccc(F)c(Cl)c1)c1ccnc(-c2ccc3c(c2)OCO3)c1O [Compound 17, 2-(Benzo[d][1,3]dioxol-5-yl)-N-(3-chloro-4-fluorophenyl)-3-hydroxyisonicotinimidoyl nitrile] | 10
21 | N#C/C(=N\c1cccc(C(F)(F)F)c1)c1ccnc(-c2ccncc2)c1O [Compound 28, 3-Hydroxy-N-(3-(trifluoromethyl)phenyl)-[2,4′-bipyridine]-4-carbimidoyl nitrile] | 70
22 | Cc1cc(-c2nccc(/C(C#N)=N/c3ccc(F)c(C(F)(F)F)c3)c2O)ccn1 [Compound 39, N-(4-Fluoro-3-(trifluoromethyl)phenyl)-3-hydroxy-2′-methyl-[2,4′-bipyridine]-4-carbimidoyl nitrile] | 67
23 | COc1cc(-c2nccc(/C(C#N)=N/c3ccc(F)c(Cl)c3)c2O)ccn1 [Compound 15, N-(3-Chloro-4-fluorophenyl)-3-hydroxy-2′-methoxy-[2,4′-bipyridine]-4-carbimidoyl nitrile] | 47
24 | Cc1cc(-c2nccc(/C(C#N)=N/c3ccc(F)cc3F)c2O)ccn1 [Compound 27, N-(2,4-Difluorophenyl)-3-hydroxy-2′-methyl-[2,4′-bipyridine]-4-carbimidoyl nitrile] | 64
25 | N#C/C(=N\c1ccc(F)cc1)c1ccnc(-c2ccnc(F)c2)c1O [Compound 43, 2′-Fluoro-N-(4-fluorophenyl)-3-hydroxy-[2,4′-bipyridine]-4-carbimidoyl nitrile] | 69
26 | Cc1cc(-c2nccc(/C(C#N)=N/c3ccc(F)c(F)c3)c2O)ccn1 [Compound 10, N-(3,4-Difluorophenyl)-3-hydroxy-2′-methyl-[2,4′-bipyridine]-4-carbimidoyl nitrile] | 79
27 | N#C/C(=N\c1cccc(Cl)c1)c1ccnc(-c2ccncc2)c1O [Compound 22, N-(3-Chlorophenyl)-3-hydroxy-[2,4′-bipyridine]-4-carbimidoyl nitrile] | 87
28 | CNC(=O)c1cc(-c2nccc(/C(C#N)=N/c3ccc(F)cc3)c2O)ccn1 [Compound 32, N-(4-Fluorophenyl)-3-hydroxy-2′-(methylcarbamoyl)-[2,4′-bipyridine]-4-carbimidoyl nitrile] | 67
